From the supplement of paper PMC10307832

Experiments:
Test in all cases: relative viability (nuclei count vs DMSO), 5 days (fraction); higher = more cells survive
[1] = test system: NCI-H1793
In short: (§1)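 Medians of duplicate plates are given as relative viability. That measure is the nuclei count in treated wells divided by the count in vehicle wells. Counts were taken on 4× images of lung cancer cell lines in 1536-well plates, 5 days after pin-tool dosing the day after seeding with one drug alone or a fixed anchor-drug dose plus five library-drug doses (not always all listed) in √10 steps.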

[2] = test system: SK-LU-1
In short: as §1

[3] = test system: NCI-H460
In short: as §1

[4] = test system: CAL-12T
In short: as §1

[5] = test system: NCI-H2085
In short: as §1

[6] = test system: LOU-NH91
In short: as §1

[7] = test system: NCI-H838
In short: as §1

[8] = test system: NCI-H1437
In short: as §1

[9] = test system: NCI-H1651
In short: as §1

[10] = test system: LU99A
In short: as §1

[11] = test system: NCI-H2023
In short: as §1

[12] = test system: BEN
In short: as §1

[13] = test system: NCI-H1975
In short: as §1

[14] = test system: NCI-H1650
In short: as §1

[15] = test system: NCI-H1734
In short: as §1

[16] = test system: NCI-H1355
In short: as §1

[17] = test system: HCC-366
In short: as §1

[18] = test system: COR-L23
In short: as §1

[19] = test system: NCI-H441
In short: as §1

With `CCN(CC)CCCCNc1ncc2cc(-c3cc(OC)cc(OC)c3)c(NC(=O)NC(C)(C)C)nc2n1` + CC1(C)CCC(c2ccc(Cl)cc2)=C(CN2CCN(c3ccc(C(=O)NS(=O)(=O)c4ccc(N[C@H](CCN5CCOCC5)CSc5ccccc5)c(S(=O)(=O)C(F)(F)F)c4)cc3)CC2)C1 [Navitoclax] (partner 0.5 µM) the relative viability ([1]; first compound 0.01 µM) was 0.988, the relative viability ([1]; first compound 0.1 µM) was 0.326 and the relative viability ([1]; first compound 0.3162 µM) was 0.439. The relative viability ([1]; first compound 1 µM) was 0.326, the relative viability ([2]; first compound 0.01 µM) was 1.02 and the relative viability ([2]; first compound 0.03162 µM) was 0.894. The relative viability ([2]; first compound 0.1 µM) was 1.08, the relative viability ([2]; first compound 0.3162 µM) was 1.18 and the relative viability ([2]; first compound 1 µM) was 0.639. The relative viability ([3]; first compound 0.01 µM) was 1.3, the relative viability ([3]; first compound 0.03162 µM) was 1.18 and the relative viability ([3]; first compound 0.3162 µM) was 1.21. For the same molecule, the relative viability ([3]; first compound 1 µM) was 1.09, the relative viability ([4]; first compound 0.01 µM) was 1.43 and the relative viability ([4]; first compound 0.03162 µM) was 1.12. It also gave a relative viability ([4]; first compound 0.1 µM) of 1.22, a relative viability ([4]; first compound 0.3162 µM) of 1.42 and a relative viability ([4]; first compound 1 µM) of 1.19. The relative viability ([5]; first compound 0.01 µM) was 1.08, the relative viability ([5]; first compound 0.03162 µM) was 1.22 and the relative viability ([5]; first compound 0.1 µM) was 1.33. For the same molecule, the relative viability ([5]; first compound 0.3162 µM) was 1.22, the relative viability ([5]; first compound 1 µM) was 1.06 and the relative viability ([6]; first compound 0.01 µM) was 0.611. The relative viability ([6]; first compound 0.03162 µM) was 0.674, the relative viability ([6]; first compound 0.1 µM) was 0.718 and the relative viability ([6]; first compound 0.3162 µM) was 0.795. It also gave a relative viability ([6]; first compound 1 µM) of 0.722, a relative viability ([7]; first compound 0.01 µM) of 1.18 and a relative viability ([7]; first compound 0.03162 µM) of 1.12. It also gave a relative viability ([7]; first compound 0.1 µM) of 1.44, a relative viability ([7]; first compound 0.3162 µM) of 1.07 and a relative viability ([7]; first compound 1 µM) of 0.809. For the same molecule, the relative viability ([8]; first compound 0.01 µM) was 1.11, the relative viability ([8]; first compound 0.03162 µM) was 1.1 and the relative viability ([8]; first compound 0.1 µM) was 1.35. It also gave a relative viability ([8]; first compound 0.3162 µM) of 1.22, a relative viability ([8]; first compound 1 µM) of 1.04 and a relative viability ([9]; first compound 0.01 µM) of 0.983. It also gave a relative viability ([9]; first compound 0.03162 µM) of 1.09, a relative viability ([9]; first compound 0.1 µM) of 1.25 and a relative viability ([9]; first compound 0.3162 µM) of 1.23. For the same molecule, the relative viability ([9]; first compound 1 µM) was 1.03, the relative viability ([10]; first compound 0.01 µM) was 0.716 and the relative viability ([10]; first compound 0.03162 µM) was 0.862. The relative viability ([10]; first compound 0.1 µM) was 0.949, the relative viability ([10]; first compound 0.3162 µM) was 0.85 and the relative viability ([10]; first compound 1 µM) was 0.69. The relative viability ([11]; first compound 0.01 µM) was 1.04, the relative viability ([11]; first compound 0.03162 µM) was 0.997 and the relative viability ([11]; first compound 0.1 µM) was 1. It also gave a relative viability ([11]; first compound 0.3162 µM) of 1.04, a relative viability ([11]; first compound 1 µM) of 0.823 and a relative viability ([12]; first compound 0.01 µM) of 0.0624. The relative viability ([12]; first compound 0.03162 µM) was 0.0641, the relative viability ([12]; first compound 0.1 µM) was 0.0454 and the relative viability ([12]; first compound 0.3162 µM) was 0.0573. The relative viability ([12]; first compound 1 µM) was 0.0385, the relative viability ([13]; first compound 0.01 µM) was 1.14 and the relative viability ([13]; first compound 0.03162 µM) was 1.13. It also gave a relative viability ([13]; first compound 0.1 µM) of 1.14, a relative viability ([13]; first compound 0.3162 µM) of 1.23 and a relative viability ([13]; first compound 1 µM) of 0.87. It also gave a relative viability ([14]; first compound 0.01 µM) of 1.12, a relative viability ([14]; first compound 0.03162 µM) of 1.03 and a relative viability ([14]; first compound 0.1 µM) of 1.17. For the same molecule, the relative viability ([14]; first compound 0.3162 µM) was 0.784, the relative viability ([14]; first compound 1 µM) was 0.7 and the relative viability ([15]; first compound 0.01 µM) was 0.971. The relative viability ([15]; first compound 0.03162 µM) was 0.863, the relative viability ([15]; first compound 0.1 µM) was 0.824 and the relative viability ([15]; first compound 0.3162 µM) was 1.03. It also gave a relative viability ([15]; first compound 1 µM) of 0.761, a relative viability ([16]; first compound 0.01 µM) of 0.906 and a relative viability ([16]; first compound 0.03162 µM) of 1.09. The relative viability ([16]; first compound 0.1 µM) was 0.991, the relative viability ([16]; first compound 0.3162 µM) was 1.02 and the relative viability ([16]; first compound 1 µM) was 0.938. For the same molecule, the relative viability ([17]; first compound 0.01 µM) was 1.16, the relative viability ([17]; first compound 0.03162 µM) was 1.09 and the relative viability ([17]; first compound 0.1 µM) was 1.2. It also gave a relative viability ([17]; first compound 0.3162 µM) of 1.27, a relative viability ([17]; first compound 1 µM) of 1.2 and a relative viability ([18]; first compound 0.01 µM) of 1.14. The relative viability ([18]; first compound 0.03162 µM) was 1.12, the relative viability ([18]; first compound 0.1 µM) was 1.33 and the relative viability ([18]; first compound 0.3162 µM) was 1.18. It also gave a relative viability ([18]; first compound 1 µM) of 1.12, a relative viability ([19]; first compound 0.01 µM) of 0.547 and a relative viability ([19]; first compound 0.03162 µM) of 0.714. It also gave a relative viability ([19]; first compound 0.1 µM) of 1.2, a relative viability ([19]; first compound 0.3162 µM) of 0.827 and a relative viability ([19]; first compound 1 µM) of 0.618.
